Results on seven molecules are retold here after patent US20230107216A1, “PANTETHEINE DERIVATIVES AND USES THEREOF” (Comet Therapeutics, Inc., priority 2018, published 2023).

Where two headings read alike, the source gives them in different places.

Assay [1] concerns primary fibroblasts (healthy controls and PA, MMA, BCKDK, PDH, VLCAD, LS, PC, GA, VLCFA, KSS, FXN, HD). Kind of assay: Measurement of ROS (H2DCFDA) in primary fibroblasts. Type of assay: cell-based, human. Conditions: Homo sapiens, procedure Example 812, Assay Condition C. On the procedure:
Primary adherent fibroblasts were cultured in minimum essential medium (MEM) (Gibco, 25030081) supplemented with 2 mM L-Glutamine (Gibco, 25030081), 15% fetal bovine serum (FBS) (Gibco, 26400044) and 1% penicillin/streptomycin (Gibco, 5140122) at 37° C. and 5% CO2. Cells were collected for either passaging or experiment at ˜70-80% confluence. Cells were obtained by trypsinization and seeded in cell culture microplates either white plate (Thermo Fisher Scientific, 152028) for luminescent measurement or black plate (Thermo Fisher Scientific, 165305) for fluorescent based read out for different assays listed below. Cells were obtained by trypsinization and […] were seeded and allowed to adhere for 16-18 hours to have confluency around 70-80% in the cell well with culture media. After 24 hours prior to measurements (37° C., 5% CO2) media was changed to Dulbecco's Modified Eagle Medium (DMEM, Agilent Seahorse cat #103575-100) with the appropriate supplements as stated below.
Primary fibroblasts assayed were Healthy controls (GM00041, GM05659, GM23974 Coriell Institute for Medical Research), Propionic Acidemia (PA) (GM00371, GM03590 Coriell Institute for Medical Research, Tsi 6337 Trans-Hit Bio), Methylmalonic Acidemia (MMA) (GM01673, Coriell Institute for Medical Research, Tsi 5224, Tsi 4290 Trans-Hit Bio), Branched chain ketoacid dehydrogenase kinase (BCKDK) (GM00612, GM00649 Coriell Institute for Medical Research), Subnormal activation of pyruvate dehydrogenase complex (PDH) (GM01503 Coriell Institute for Medical Research), Very long-chain acyl-CoA dehydrogenase (VLCAD) (GM17475), Leigh Syndrome (LS) (GM03672, GM13411 Coriell Institute for Medical Research), Pyruvate Carboxylase Deficiency (PC) (GM00444 Coriell Institute for Medical Research), Glutaric Acidemia-I (GA), Impaired VLCFA oxidation (VLCFA) (GM13262), Kearns-Sayre Syndrome (KSS) (GM06225 Coriell Institute for Medical Research), Friedreich's Ataxia (FXN), Huntington's disease (HD) (GM21756 Coriell Institute for Medical Research). Next, cells were treated with compounds (10 μM) and ROS H2DCFDA (22 μM) dye for 2 hours in PA, MMA lines and for 24h for the other fibroblast lines. Kinetic read was started immediately with a i3x plate reader (492/527 nm) for 60 minutes.
A total dead cell count was performed as described in Example 817 and only alive cells were used for analysis.

The test system of assay [2] is Propionic Acidemia (PA) primary fibroblasts Tsi 6337. Kind of assay: Mitochondrial respiration, XFe96 Extracellular Flux Analyzer (OCR/ECAR), PA fibroblasts Tsi 6337. In kind it is cell-based. Conditions: Homo sapiens, Fibroblast. On the procedure:
The effect of the compounds of the present disclosure on mitochondrial respiration was measured with a XFe96 Extracellular Flux Analyzer (Seahorse Bioscience, Agilent Technologies) and Oxygen consumption Rate (OCR) and Extracellular acidification rate (ECAR) determined.
Cell culture and treatments. Primary adherent fibroblasts were cultured in minimum essential medium (MEM) (Gibco, 25030081) supplemented with 2 mM L-Glutamine (Gibco, 25030081), 15% fetal bovine serum (FBS) (Gibco, 26400044) and 1% penicillin/streptomycin (Gibco, 5140122) at 37° C. and 5% CO2. Cells were collected for either passaging or experiment at ˜70-80% confluence. Cells were obtained by trypsinization and seeded at 20000 cells/well in cell culture microplates (Seahorse Bioscience, 101085-004) and allowed to adhere for 16 hours in culture media.
By profiling different primary cells and/or optimizing their culture media or environmental components one can select cell lines and/or conditions that are appropriate for the biological or disease model. In the present example, 24 hours prior to OCR and ECAR profiling, media was changed to Dulbecco's Modified Eagle Medium (DMEM, Agilent Seahorse 103575-100) with the appropriate supplements for the different primary cells (10 mM glucose, 2 mM L-glutamine, 1 mM pyruvate, 10% FBS; 1 mM glucose, 2 mM L-glutamine, 1 mM pyruvate, 10% FBS; 10 mM glucose, 10% FBS; 5 mM glucose 10% FBS; 1 mM glucose 10% FBS). Cells used in this example were: Propionic Acidemia (PA) (GM00371, GM03590 Coriell Institute for Medical Research, Tsi 6337, Tsi 4626, Tsi 3618 Trans-Hit Bio), Methylmalonic Acidemia (MMA) (GM01673, Coriell Institute for Medical Research, Tsi 5224 Trans-Hit Bio), Branched chain ketoacid dehydrogenase kinase (BCKDK) (GM00612, GM00649 Coriell Institute for Medical Research), Subnormal activation of pyruvate dehydrogenase complex (PDH) (GM01503 Coriell Institute for Medical Research), Very long-chain acyl-CoA dehydrogenase (VLCAD) (GM17475), Leigh Syndrome (LS) (GM03672, GM13411 Coriell Institute for Medical Research), Pyruvate Carboxylase Deficiency (PC) (GM00444 Coriell Institute for Medical Research), Glutaric Acidemia-I (GA) (GM10653), Friedreich's Ataxia (FXN) (GM04078 Coriell Institute for Medical Research, Huntington's disease (HD) (GM21756 Coriell Institute for Medical Research), Ornithine Transcarbamylase Deficiency (OTC) (GM12756 Coriell Institute for Medical Research), Kearns-Sayre Syndrome (KSS) (GM06225 Coriell Institute for Medical Research).
One hour before the assay, the cells were washed with freshly prepared unbuffered serum free-Seahorse XF Assay medium (Seahorse Bioscience, North America, USA, 103575-100) with the same supplements as for the previous 24 hour incubation.
After baseline measurements of OCR, cells were challenged with compounds of the present disclosure at different concentrations (10 to 50 μM) or vehicle (DMSO, 0.1%) and a post-compound baseline was recorded. OCR was measured after sequentially adding to each well 1 μg/ml oligomycin (inhibitor of ATP synthase Sigma-Aldrich, 753531), then maximal OCR was determined with carbonyl cyanide 4-(trifluoromethoxy) phenylhydrazone (FCCP, Sigma-Aldrich, C2920), (uncoupler of oxidative phosphorylation) and 0.5 μM of rotenone (Sigma-Aldrich, R8875) plus antimycin A (Sigma-Aldrich, A8674) (inhibitors of mitochondrial complex I and III) for determination of rotenone-antimycin insensitive respiration together with Hoechst for nuclear staining in situ when normalized to cell counts. After the analysis and nuclear staining, the XFp microplate was transferred to the Cytation 5, and the nuclear images were captured, the individual nuclei were identified and counted by BioTek Gen5 software. Data were expressed as pmol of O2 per minute and normalized by nuclear staining and baselined to pre-compound addition.
Assay conditions were as stated below.
Assay specifics on assay conditions are indicated below when readouts were normalized to cell counts. […]

Assay [3] concerns Methylmalonic Acidemia (MMA) primary fibroblasts Tsi 5224. Kind of assay: Mitochondrial respiration, XFe96 Extracellular Flux Analyzer (OCR/ECAR), MMA fibroblasts Tsi 5224.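 Also: relative to vehicle DMSO control.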 Conditions: Homo sapiens, Fibroblast, read-out: Increase in Maximal Respiratory Capacity AUC. Type of assay: cell-based. An outline of the steps: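 Primary fibroblasts (20000 cells/well) were held 24 h in supplemented DMEM before Seahorse OCR/ECAR profiling. Compounds at 10 to 50 μM or 0.1% DMSO were injected after baseline, then oligomycin 1 μg/ml, FCCP, and rotenone/antimycin A 0.5 μM. Values were normalized to Hoechst nuclear counts, baselined to pre-compound, and expressed relative to vehicle.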

Assay [4] deals with Venular Endothelial cells (HUVEC) (4H system). Kind of assay: BioMAP 4H system (IL-4 and histamine). Type of assay: cell-based, human. Particulars: 1 uM; procedure of Example 826.
Assay [5] relates to monocyte-derived M1 macrophages. Kind of assay: M1 differentiation assay (macrophage TNFα, IL6, IL10 ELISA, FACS). Type of assay: cell-based, human. On the procedure: Monocytes were isolated by positive isolation with CD14+ microbeads (Miltenyi, 130-050-201). Monocytes were 99% viable and were 96% purity as analyzed by FACS and CD14+ (BD, 563561). 100,000 monocytes along with compounds at the dose of 10 and 50 μM were allowed to differentiate to macrophages with 10 ng/ml GMCSF (R&D, 15-GM-050/CF) in RPMI complete media (Invitrogen, 22400089) with 15% FBS (Hyclone SV30087.03) and 1% Penicillin-Streptomycin (Gibco, 15140-122). On day 2 and 4 half the media was refreshed with fresh GM-CSF and compounds at 10 and 50 μM dose. On day 6 the macrophages were matured with GMCSF, IFNγ (R&D 285-IF-100/CF) and LPS (Sigma, L6143) in the presence of 10 μM and 50 μM of compounds. After 24h, supernatant was collected for the measurement of TNFα (DKW, 1117202) IL6 (DKW, 1110602), IL10 (DKW, 1110003) by ELISA. Macrophages were detached gently on ice with EDTA (Invitrogen, 15575-038) and analyzed by FACS (BD LSR Fortessa, 853492). Cells were stained for live/dead dye, surface and intracellular markers with fixation/permeabilization solution (BD, 554714) and ALIVE/DEAD™ Fixable Near-IR Dead Cell Stain Kit (BD, L34976), mouse anti human CD86 APC (BD, 555660), mouse anti-human CD163 PE (BD, 556018), mouse anti-human CD68 FITC (BD, 562117) or isotype controls anti-mouse IgG1 κ PE (BD, 559320) and anti-mouse IgG1 κ APC (BD, Anti mouse IgG1 κ APC (BD, 55571). Mature M1 macrophages were defined as CD86+CD68+CD163− and increase in TNFα, IL6, and decrease in IL-10.
In general terms: In an ELISA, binding on a coated surface is turned into a signal by an enzyme label.

[6] abbreviates: PA Tsi 6337, assay condition A (10 mM glucose, 2 mM L-glutamine, 1 mM pyruvate, 10% FBS), read-out: Increase in Maximal Respiratory Capacity AUC.
Where [7] appears, read: MMA Tsi 5224, assay condition A (10 mM glucose, 2 mM L-glutamine, 1 mM pyruvate, 10% FBS).
The mark [8] stands for this setting: PA Tsi 6337, assay condition D (1 mM glucose, 10% FBS), read-out: Increase in Maximal Respiratory Capacity AUC.

Regarding `CC[C@H](O)CC(=O)SCCNC(=O)CCNC(=O)[C@H](O)C(C)(C)CO` [Compound 1249, (2R)-2,4-dihydroxy-N-{2-[(2-{[(3S)-3-hydroxypentanoyl]sulfanyl}ethyl)carbamoyl]ethyl}-3,3-dimethylbutanamide], the inhibition at 10 µM was at least 10% in assay [1] (Fibroblast, VLCAD GM17475, read-out: Decreased ROS by at least 10%); at least 30% in assay [1] (Fibroblast, VLCAD GM17475, read-out: Decreased ROS by at least 30%); at least 10% in assay [1] (FXN GM04078, read-out: Decreased ROS by at least 10%); at least 30% in assay [1] (FXN GM04078, read-out: Decreased ROS by at least 30%). In assay [2] (setting [6]), the activation at 10 µM is at least 10%.
As for `CC(C(=O)SCCNC(=O)CCNC(=O)[C@H](O)C(C)(C)CO)[C@H](C)O` (stereo partly drawn) [Compound 1248, (2R)-2,4-dihydroxy-N-{2-[(2-{[(3S)-3-hydroxy-2-methylbutanoyl]sulfanyl}ethyl)carbamoyl]ethyl}-3,3-dimethylbutanamide], the activation at 10 µM in assay [3] (setting [7]) and in assay [2] (setting [6]) was at least 10% each time.
In the case of `COC(=O)C(=O)SCCNC(=O)CCNC(=O)[C@H](O)C(C)(C)COP(=O)(O)O` [Compound 60, Methyl (R)-2-((2-(3-(2-hydroxy-3,3-dimethyl-4-(phosphonooxy)butanamido)propanamido)ethyl)thio)-2-oxoacetate], the activation at 10 µM in assay [3] (MMA Tsi 5224, assay condition D (1 mM glucose, 10% FBS)) is at least 10%; in assay [2] (setting [8]), at least 10%. In addition, the inhibition at 10 µM in assay [1] (Fibroblast, KSS GM06225, read-out: Decreased ROS by at least 10%) is at least 10%; in assay [1] (Fibroblast, KSS GM06225, read-out: Decreased ROS by at least 30%), at least 30%.
`CC(C)(CO)[C@@H](O)C(=O)NCCC(=O)NCCSC(=O)[C@@H](N)CC(=O)O` [Compound 390]: the activation at 10 µM is at least 10% in assay [3] (setting [7]) and at least 10% in assay [2] (PA Tsi 6337, assay condition D (1 mM glucose, 10% FBS), read-out: Increase in Spare Capacity AUC).
In the case of `COC(=O)CCC(=O)SCCNC(=O)CCNC(=O)[C@H](O)C(C)(C)COC(=O)CN` [Compound 1228], the activation at 10 µM in assay [3] (setting [7]), in assay [2] (setting [6]) and in assay [2] (setting [8]) was at least 10% throughout.
As to `C/C=C/C(=O)CC(=O)SCCNC(=O)CCNC(=O)[C@H](O)C(C)(C)CO` [Compound 36, (2R)-2,4-dihydroxy-3,3-dimethyl-N-[2-[(2-[[(4E)-3-oxohex-4-enoyl]sulfanyl]ethyl)carbamoyl]ethyl]butanamide], in assay [3] (setting [7]), the activation at 10 µM was at least 10%. The “% decrease in Eotaxin-3” value in assay [4] was at least 10%.
For the molecule `COC(=O)CC(O)(CC(=O)OC)C(=O)SCCNC(=O)CCNC(=O)[C@H](O)C(C)(C)CO` [Compound 418], the activation at 10 µM was at least 10% in assay [2] (setting [8]) and at least 30% in assay [5] (Homo sapiens, Macrophage, 10 uM, read-out: % Increase in IL-10 Secretion). Also, in assay [5] (50 uM), the “% decrease in Live Macrophage Cells” value is reported as at least 20%. The inhibition at 10 µM was at least 30% in assay [5] (Homo sapiens, Macrophage, 10 uM, read-out: % decrease in Macrophage IL-6 Secretion) and at least 30% in assay [5] (Homo sapiens, Macrophage, 10 uM, read-out: % decrease in Macrophage TNFα Secretion).
